# How the values were obtained:
# Assay type in all cases: in vitro ADME, Wistar rat
# [1] = test system: proximal ileum tissue samples; experiment: In vitro permeation of octreotide via proximal ileum tissue in diffusion chamber 500 under LITV pulses (FIG. 36); conditions: 18 Hz, 3 mA, 1 millisecond, at 7 minutes, vs non-stimulated control
# Protocol: (§1) The samples were analyzed for their content of octreotide by HPLC-UV 205 nm spectroscopy (Hewlett-Packard 1100). […] A 100×3 mm C18 column was used.
# [2] = test system: distal ileum tissue samples; experiment: In vitro permeation of octreotide via distal ileum tissue in diffusion chamber 500 under LITV pulses (FIG. 36); conditions: 18 Hz, 3 mA, 1 millisecond, at 7 minutes, vs non-stimulated control
# Protocol: as §1
# [3] = test system: jejunal tissue samples (upper jejunum); experiment: In vitro permeation of octreotide via jejunal tissue in diffusion chamber 500 under LITV pulses (FIGS. 27-36); conditions: for octreotide permeation vs control group: FIG. 29; for permeation efficiency, effect of electrode material: FIG. 34
# Protocol: as §1
# [4] = test system: upper jejunum tissue segments; experiment: In vitro permeation of octreotide through rat upper jejunum in a diffusion chamber, with and without LITV pulses (FIG. 24); conditions: 12 Hz monophasic pulses, 1 millisecond, 3 mA, vs control chamber without electrical stimulation, 1 mg/ml donor, 90-minute period
# From the text: The distance between electrode centers was 10 mm.
smiles,measurement,setting,value
"C[C@@H](O)[C@@H]1NC(=O)[C@H](CCCCN)NC(=O)[C@@H](Cc2c[nH]c3ccccc23)NC(=O)[C@H](Cc2ccccc2)NC(=O)[C@@H](NC(=O)[C@H](N)Cc2ccccc2)CSSC[C@@H](C(=O)N[C@H](CO)[C@@H](C)O)NC1=O [octreotide, octreotide acetate]","permeation efficiency, effect of pulse application by intestinal region",[1],increased permeation efficiency
same,"permeation efficiency, effect of pulse application by intestinal region",[2],positive but less pronounced effect
same,"permeation efficiency, effect of pulse cycle","[3]; 1 pulse per cycle among 1, 2, 3 pulses per cycle, 18 Hz, 3 mA, 1 millisecond, FIG. 31",greatest permeation efficiency
same,"transport enhancement ratio (ER), effect of pulse frequency","[3]; 18 Hz among 5, 12, 18, 24, 30, 60 Hz, 1 millisecond, 3 mA, at 30 minutes, FIG. 28",greatest enhancement ratio
same,"permeation efficiency, effect of cessation of pulse application","[3]; continuous application of pulses vs cessation after 10 minutes (n=1), 18 Hz, 3 mA, 1 millisecond, normalized to control group of FIG. 27, FIG. 35",substantially greater permeation efficiency
same,"magnitude of permeation efficiency, effect of electrode distance from jejunal tissue","[3]; electrode distance 0.5 mm (n=2) vs 3 mm (n=6), 18 Hz, 3 mA, 1 millisecond, at 15 minutes, FIG. 32",greater at 0.5 mm than at 3 mm
same,"permeation efficiency, effect of pulse application by intestinal region","[3]; jejunal tissue, 18 Hz, 3 mA, 1 millisecond, at 7 minutes, vs non-stimulated control, FIG. 36",greatest effect of pulse application
same,"permeation efficiency, trend with number of pulses per cycle","[3]; number of pulses per cycle increased from 1 to 2 to 3 (5-millisecond intervals), 18 Hz, 3 mA, 1 millisecond, FIG. 31",the permeation efficiency decreased
same,"transport enhancement ratio (ER), effect of pulse duration","[3]; pulse duration 1 millisecond among 0.2, 0.5, 1, 3 milliseconds, 18 Hz, 3 mA, at 15 minutes, FIG. 30",greatest enhancement ratio
same,octreotide permeation (permeation efficiency),"[3]; pulses 1 millisecond, 18 Hz, 3 mA (n=6) vs non-stimulated control group (n=3), FIG. 27",substantially enhanced octreotide permeation
same,octreotide permeation vs control group,"[3]; pulses at 5 Hz (n=1), 1 millisecond, 3 mA",did not yield a higher octreotide permeation
same,octreotide permeation vs control group,"[3]; pulses at 60 Hz (n=1), 1 millisecond, 3 mA",did not yield a higher octreotide permeation
same,"permeation efficiency, effect of electrode material","[3]; silver chloride (AgCl) electrodes (n=2), 18 Hz, 3 mA, 1 millisecond",did not increase permeation efficiency
same,"permeation efficiency, effect of electrode material","[3]; stainless steel (SS316L) electrodes (n=6), 18 Hz, 3 mA, 1 millisecond",substantially increased permeation efficiency
same,"permeation efficiency, effect of electrode material","[3]; titanium nitride (TN) electrodes (n=3), 18 Hz, 3 mA, 1 millisecond",did not increase permeation efficiency
same,"permeation efficiency, effect of electrode insulation","[3]; without divider 528, electrodes not insulated from each other (n=1), 18 Hz, 3 mA, 1 millisecond, FIG. 33",did not increase permeation efficiency
same,octreotide permeation into acceptor cell,[4],substantially greater increase in octreotide permeation

# From US20080188837A1, “Local Delivery of Drugs or Substances Using Electronic Permeability Increase” (priority 2004, published 2008)
